Counter-ions that a name gives are not always drawn.
Legend:
Format in all cases: cell-based
human S1P3 receptor = human S1P3 receptor (Homo sapiens (Human), UniProt Q99500); assay: In vitro functional activity (agonism) on human S1P3 receptors, CHO-human-S1P3-Aequorin assay; settings: aequorin luminescence, CHO K1 cells, 3 independent experiments, read-out: S1P3 pEC50 (converted)
From the text: In Vitro Functional Activity (Agonism) on Human S1P3 Receptors
The CHO-human-S1P3-Aeqorin assay (CHO/Gα16/AEQ/h-S1P3) was established at Solvay Pharmaceuticals. The plasmid DNA coding for the S1P3 receptor (accession number in GenBank NM_005226 was purchased from UMR cDNA resource Centre (Rolla, Mo.). The pcDNA3.1/hS1P3 construct carrying the mitochondrially targeted apo-Aeqorin and Gal6 protein was transfected in CHO K1 cell-line.
(§1) Human-S1P3-Aequorin cells express mitochondrial targeted apo-Aequorin. Cells have to be loaded with coelanterazine, in order to reconstitute active Aequorin. After binding of agonists to the human S1P3 receptor the intracellular calcium concentration increases and binding of calcium to the apo-Aequorin/coelenterazine complex leads to an oxidation reaction of coelenterazine, which results in the production of apo-Aequorin, coelenteramide, CO2 and light ([…]max 469 nm). This luminescent response is dependent on the agonist concentration. Luminescence is measured using the MicroBeta Jet (Perkin Elmer). Agonistic effects of compounds are expressed as pEC50. Compounds were tested at a 10 points half log concentration range, and 3 independent experiments were performed in single point's measurements.

human S1P1 [1] = target: T1, human S1P1 (Homo sapiens (Human), UniProt P21453); assay: In vitro functional activity (agonism) on human S1P1 receptors (method B), CHO-K1-human S1P1-cAMP assay
Protocol: In Vitro Functional Activity (Agonism) on Human S1P1 Receptors (Method B)
Recombinant CHO-K1 cells expressing human S1P1, grown to mid-log Phase in culture media without antibiotics, detached, centrifuged and re-suspended. For agonist testing cells are mixed with compound and Forskolin and incubated at room temperature. Cells are lyses and cAMP concentration are estimated, according to the manufacturer specification, With the HTRF kit from CIS-BIO International (cat no 62AM2PEB).
Compounds were tested at a 10 points half log concentration range duplicated in 1 experiment.

human S1P5 receptor = human S1P5 receptor (Homo sapiens (Human), UniProt Q9H228); assay: In vitro functional activity (agonism) on human S1P5 receptors, CHO-human-S1P5-Aequorin assay; settings: aequorin luminescence, CHO cells, 3 independent experiments
From the text: In Vitro Functional Activity (Agonism) on Human S1P5 Receptors
as §1, with “The CHO-human-S1P5-Aeqorin assay was bought from Euroscreen, Brussels (Euroscreen, Technical dossier, Human Lysophospholid S1P5 (Edg8) receptor, DNA clone and CHO AequoScreen™ recombinant cell-line, catalog no: ES-593-A, September 2006). Human-S1P5-Aequorin” for “Human-S1P3-Aequorin”, “S1P5” for “S1P3”

human S1P1 [2] = target: T1, human S1P1; assay: In vitro functional activity (agonism) on human S1P1 receptors (method A), CHO-K1-human-S1P1-Aequorin assay
From the text: In Vitro Functional Activity (Agonism) on Human S1P1 Receptors (Method A)
as §1, with “Human-S1P1-Aequorin” for “Human-S1P3-Aequorin”, “S1P1” for “S1P3”, “2” for “3”

[3] = agonism, determined using method B (cAMP HTRF with Forskolin, CHO-K1 cells), read-out: S1P1^B pEC50 (converted)
[4] = agonism, determined using method A (aequorin luminescence, CHO-K1 cells), 2 independent experiments, read-out: S1P1^A pEC50 (converted)

Chain of human S1P5 receptor (Q9H228 whole entry): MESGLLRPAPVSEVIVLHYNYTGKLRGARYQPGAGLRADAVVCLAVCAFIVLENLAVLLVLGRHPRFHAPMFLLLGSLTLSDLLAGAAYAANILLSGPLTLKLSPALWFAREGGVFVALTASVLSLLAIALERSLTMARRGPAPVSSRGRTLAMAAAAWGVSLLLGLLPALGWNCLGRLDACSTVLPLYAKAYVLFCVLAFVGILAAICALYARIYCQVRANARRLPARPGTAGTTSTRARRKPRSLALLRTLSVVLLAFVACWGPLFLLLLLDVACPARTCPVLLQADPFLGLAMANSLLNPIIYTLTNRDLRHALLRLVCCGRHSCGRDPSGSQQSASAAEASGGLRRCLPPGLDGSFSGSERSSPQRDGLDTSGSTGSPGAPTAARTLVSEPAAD
Chain of human S1P3 receptor (Q99500 whole entry): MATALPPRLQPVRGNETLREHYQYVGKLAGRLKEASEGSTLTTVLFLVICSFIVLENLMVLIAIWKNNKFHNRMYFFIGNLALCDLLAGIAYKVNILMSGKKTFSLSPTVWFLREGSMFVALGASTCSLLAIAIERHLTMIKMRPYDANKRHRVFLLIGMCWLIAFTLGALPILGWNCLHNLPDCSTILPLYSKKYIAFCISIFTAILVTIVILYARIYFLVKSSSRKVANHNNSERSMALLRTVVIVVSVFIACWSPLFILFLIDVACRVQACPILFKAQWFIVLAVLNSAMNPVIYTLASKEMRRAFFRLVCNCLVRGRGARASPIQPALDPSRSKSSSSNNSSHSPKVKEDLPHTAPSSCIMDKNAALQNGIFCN
T1 sequence (P21453 whole entry): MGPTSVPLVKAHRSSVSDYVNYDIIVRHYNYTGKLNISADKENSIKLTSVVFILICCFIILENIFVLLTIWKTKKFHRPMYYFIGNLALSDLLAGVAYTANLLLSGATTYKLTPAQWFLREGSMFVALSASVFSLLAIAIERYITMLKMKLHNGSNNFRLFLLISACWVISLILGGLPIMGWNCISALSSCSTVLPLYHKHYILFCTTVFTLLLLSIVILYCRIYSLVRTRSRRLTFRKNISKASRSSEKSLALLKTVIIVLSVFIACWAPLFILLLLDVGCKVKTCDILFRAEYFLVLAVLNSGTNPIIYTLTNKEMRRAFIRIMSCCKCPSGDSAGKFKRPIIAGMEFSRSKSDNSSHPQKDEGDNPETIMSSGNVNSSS

Row | SMILES | EC50 (human S1P3 receptor) | EC50 (human S1P1 [1]; [3]) | S1P5 pEC50 (human S1P5 receptor) | EC50 (human S1P1 [1]) | EC50 (human S1P1 [2]; [4]) | EC50 (human S1P1 [2])
1 | CC(CN1CCC2(CC1)COc1cc(OCc3c(Cl)cccc3Cl)ccc12)C(=O)O (stereo not shown) [Compound 100, 3-{6-[(2,6-Dichlorophenyl)methoxy]-2H-spiro[1-benzofuran-3,4′-piperidine]-1′-yl}-2-methylpropanoic acid hydrochloride] | > 10 µM | > 3.16 µM | 7 |  |  | 
2 | Cc1cc(Cl)c(COc2ccc3c(c2)OCC32CCN(CCC(=O)O)CC2)c(Cl)c1 [Compound 59, 3-{6-[(2,6-Dichloro-4-methylphenyl)methoxy]-2H-spiro[1-benzofuran-3,4′-piperidine]-1′-yl)propanoic acid hydrochloride] | > 10 µM | > 3.16 µM | 7.8 |  |  | 
3 | CC(C)c1cccc(Cl)c1COc1ccc2c(c1)OCC21CCN(CCC(=O)O)CC1 [Compound 74, 3-(6-{[2-Chloro-6-(propan-2-yl)phenyl]methoxy}-2H-spiro[1-benzofuran-3,4′-piperidine]-1′-yl)propanoic acid hydrochloride] |  |  |  | > 3.16 µM |  | 
4 | Cc1c(OCc2c(Cl)cccc2Cl)ccc2c1OCC21CCN(CCC(=O)O)CC1 [Compound 129, 3-{6-[(2,6-Dichlorophenyl)methoxy]-7-methyl-2H-spiro[1-benzofuran-3,4′-piperidine]-1′-yl}propanoic acid hydrochloride] | > 10 µM | > 3.16 µM | 7.5 |  |  | 
5 | CCc1ccc(Cl)c(COc2ccc3c(c2)OCC32CCN(CCC(=O)O)CC2)c1Cl [Compound 68, 3-{6-[(2,6-Dichloro-3-ethylphenyl)methoxy]-2H-spiro[1-benzofuran-3,4′-piperidine]-1′-yl}propanoic acid hydrochloride] | > 10 µM | > 3.16 µM | 7.5 |  |  | 
6 | O=C(O)CCN1CCC2(CC1)COc1cc(/C=C/c3c(Cl)cccc3Cl)ccc12 [Compound 160, 3-{6-[(E)-2-(2,6-Dichlorophenyl)ethenyl]-2H-spiro[1-benzofuran-3,4′-piperidine]-1′-yl}propanoic acid hydrochloride] | > 10 µM | > 3.16 µM | 7.7 |  |  | 
7 | O=C(O)CCN1CCC2(CC1)COc1cc(OC3CCc4cc(Cl)cc(Cl)c43)ccc12 (stereo not shown) [Compound 79, 3-{6-[(5,7-Dichloro-2,3-dihydro-1H-inden-1-yl)oxy]-2H-spiro[1-benzofuran-3,4′-piperidine]-1′-yl}propanoic acid] | > 10 µM | 2 µM | 7.2 |  |  | 
8 | O=C(O)CCN1CCC2(CC1)COc1cc(C3CC3c3c(Cl)cccc3Cl)ccc12 (stereo not shown) [Compound 178, 3-{6-[2-(2,6-Dichlorophenyl)cyclopropyl]-2H-spiro[1-benzo-furan-3,4′-piperidine]-1′-yl}propanoic acid hydrochloride] | 3.16 µM | > 3.16 µM | 7.1 |  |  | 
9 | CCc1ccc(Cl)c(COc2ccc3c(c2)OCC32CCN(CCC(=O)O)CC2)c1 [Compound 51, 3-{6-[(2-Chloro-5-ethylphenyl)methoxy]-2H-spiro[1-benzofuran-3,4′-piperidine]-1′-yl}propanoic acid hydrochloride] | > 10 µM | > 3.16 µM | 6.6 |  |  | 
10 | O=C(O)CCN1CCC2(CC1)COc1cc(Oc3c(Cl)cccc3Cl)ccc12 [Compound 248, 3-[6-(2,6-Dichlorophenoxy)-2H-spiro[1-benzofuran-3,4′-piperidine]-1′-yl]propanoic acid hydrochloride] | > 10 µM | > 3.16 µM | 6.5 |  |  | 
11 | CCc1ccc(Cl)c(C2CC2c2ccc3c(c2)OCC32CCN(CCC(=O)O)CC2)c1 (stereo not shown) [Compound 182, 3-{6-[2-(2-Chloro-5-ethylphenyl)cyclopropyl]-2H-spiro[1-benzofuran-3,4′-piperidine]-1′-yl}propanoic acid hydrochloride] | > 10 µM | > 3.16 µM | 7.4 |  |  | 
12 | O=C(O)CCN1CCC2(CC1)COc1cc(OCc3c(F)cccc3Cl)ccc12 [Compound 38, 3-{6-[(2-Chloro-6-fluorphenyl)methoxy]-2H-spiro[1-benzofuran-3,4′-piperidine]-1′-yl}propanoic acid hydrochloride] | > 10 µM |  | 6.7 | > 3.16 µM |  | 
13 | O=C(O)CCN1CCC2(CC1)COc1cc(S(=O)(=O)Cc3c(Cl)cccc3Cl)ccc12 [Compound 299, 3-(6-{[(2,6-Dichlorophenyl)methane]sulfonyl}-2H-spiro[1-benzofuran-3,4′-piperidine]-1′-yl}propanoic acid hydrochloride] | > 10 µM |  | 6 |  | > 31.6 µM | 
14 | O=C(O)CCN1CCC2(CC1)COc1cc(SCc3c(Cl)cccc3C3CC3)ccc12 [Compound 141, 3-(6-{[(2-Chloro-6-cyclopropylphenyl)methyl]sulfanyl}-2H-spiro[1-benzofuran-3,4′-piperidine]-1′-yl}propanoic acid hydrochloride] | > 10 µM |  | 8.2 |  | 0.316 µM | 
15 | CC(C)c1cccc(Cl)c1COc1ccc2c(c1)OCC21CCN(CCCC(=O)O)CC1 [Compound 127, 4-(6-{[2-Chloro-6-(propan-2-yl)phenyl]methoxy}-2H-spiro[1-benzofuran-3,4′-piperidine]-1′-yl)butanoic acid hydrochloride] | 2.51 µM |  | 6.9 |  | 7.94 µM | 
16 | O=C(O)CCN1CCC2(CC1)COc1cc(/C=C/c3ccccc3F)ccc12 [Compound 171, 3-{6-[(E)-2-(2-Fluorophenyl)ethenyl]-2H-spiro[1-benzofuran-3,4′-piperidine]-1′-yl}propanoic acid hydrochloride] | > 10 µM | > 3.16 µM | 6.5 |  |  | 
17 | O=C(O)CCN1CCC2(CC1)OCc1cc(OCc3c(Cl)cccc3Cl)ccc12 [Compound 203, 3-{5-[(2,6-Dichlorophenyl)methoxy]-3-H-spiro[2-benzofuran-1,4′-piperidine]-1′-yl}propanoic acid hydrochloride] | > 10 µM |  | 6.7 |  | > 10 µM | 
18 | CCc1cccc(Cl)c1CSc1ccc2c(c1)OCC21CCN(CCC(=O)O)CC1 [Compound 140, 3-(6-{[(2-Chloro-6-ethylphenyl)methyl]sulfanyl}-2H-spiro[1-benzofuran-3,4′-piperidine]-1′-yl}propanoic acid hydrochloride] | > 10 µM |  | 8.5 |  |  | 0.158 µM
19 | O=C(O)CCCN1CCC2(CC1)COc1cc(OCc3c(Cl)cccc3Cl)ccc12 [Compound 128, 4-{6-[(2,6-Dichlorophenyl)methoxy]-2H-spiro[1-benzofuran-3,4′-piperidine]-1′-yl}butanoic acid hydrochloride] | > 10 µM | > 3.16 µM | 7.6 |  |  | 
20 | O=C(O)CCN1CCC2(CC1)COc1cc(OCc3c(Cl)cccc3OC(F)(F)F)ccc12 [Compound 77, 3-(6-{[2-Chloro-6-(trifluoromethoxy)phenyl]methoxy}-2H-spiro[1-benzofuran-3,4′-piperidine]-1′-yl)propanoic acid hydrochloride] | > 10 µM |  | 7.6 |  | 6.31 µM | 
